Measured values taken from patent US8946217B2, “Pharmaceutical compounds” (F. Hoffman-La Roche AG, priority 2005, dated 2015).

Tested on: Caco-2 cells
Assay: Caco-2 permeability
Type: in vitro ADME
Settings: bidirectional Caco-2 assay
Procedure: Caco-2 cells were seeded onto Millipore Multiscreen plates at 1×10^5 cells/cm^2, and were cultured for 20 days. Assessment of compound permeability was subsequently conducted. The compounds were applied to the apical surface (A) of cell monolayers and compound permeation into the basolateral (B) compartment was measured. This was performed in the reverse direction (B-A) to investigate active transport. A permeability coefficient value, Papp, for each compound, a measure of the rate of permeation of the compound across the membrane, was calculated. Compounds were grouped into low (Papp</=[…]) or high (Papp>/=[…]) absorption potential based on comparison with control compounds with established human absorption.
For assessment of a compound's ability to undergo active efflux, the ratio of basolateral (B) to apical (A) transport compared with A to B was determined. Values of B-A/A-B>/=1.0 indicated the occurrence of active cellular efflux. All of the compounds tested through the Caco-2 permeability screen had Papp values >/=[…].

## CN1CCN(Cc2cc3nc(-c4cccc(O)c4)nc(N4CCOCC4)c3s2)CC1 [PI540]
  B-A/A-B asymmetry index: less than 1.0
